In patent publication US7692038B2, “Crystalline forms” (Pfizer, Inc., priority 2006, dated 2010):

Experiments:
[1] = Hygroscopicity by dynamic vapour sorption (DVS), water sorption and desorption; type: physicochemical; details: 30° C.
Procedure: Hygroscopicity was assessed for forms I and II using dynamic vapour sorption (DVS). The samples were characterised using a Surface Measurement Systems Ltd, dynamic vapour sorption equipment, model DVS-1. The analysis was conducted at 30° C. with a nitrogen gas flow of 200 cc/min. Water sorption and desorption were determined in the range 0 to 90% relative humidity (RH) using 15% RH intervals. Exposure was for a minimum of two hours at each humidity, or until the rate of weight change was less than 0.0005%/minute (averaged over 10 minutes). Sample weights were in the range 23-36 mg. The samples were weighed using a CAHN D-200, seven place digital recording balance, which is an integral part of the equipment. The results are tabulated below in Tables 6 and 7 and plotted in FIGS. 15 and 16.

[2] = Relative thermodynamic stability of polymorphs (slurry conversion); type: physicochemical; details: ambient temperature
Procedure: The crystalline forms of the invention may be prepared by the processes described below. The skilled person will understand that the preparation of particular polymorphic forms of a compound can sometimes be problematic, and that small changes in reaction conditions can sometimes result in an unexpected product. In particular, the presence of seeds in the atmosphere under which the experiment is conducted can have a decisive outcome on the result. The processes described below, however, are generally reliable. […] The form I polymorph is the more kinetically favoured product at ambient temperature and its formation is encouraged by rapid crystallisation techniques such as rapid cooling. Seeding with the desired product will obviously increase success in these preparations. Preparation of form I material is particularly encouraged by the use of a form I seed which contains a mixture of diastereomers due to epimerisation at the modified aspartate residue.
Pure form II may be prepared by slurrying a mixture of forms I and II in acetonitrile at room temperature until full conversion has taken place (typically a few days, e.g. 3 days). The product is then filtered off and dried (e.g. in a vacuum oven). The following procedures are illustrative.
A 40:60 mixture (by weight) of forms I and II was slurried in acetonitrile and left for three days. […]

SMILES	Water Sorption (% w/dry w) Desorption ([1]; 15% RH)	Water Sorption (% w/dry w) Sorption ([1]; 15% RH)	Water Sorption (% w/dry w) Desorption ([1]; 30% RH)	Water Sorption (% w/dry w) Sorption ([1]; 30% RH)	Water Sorption (% w/dry w) Desorption ([1]; 45% RH)	Water Sorption (% w/dry w) Sorption ([1]; 45% RH)	Water Sorption (% w/dry w) Desorption ([1]; 60% RH)	Water Sorption (% w/dry w) Sorption ([1]; 60% RH)	Water Sorption (% w/dry w) Desorption ([1]; 75% RH)	Water Sorption (% w/dry w) Sorption ([1]; 75% RH)	Water Sorption (% w/dry w) Desorption ([1]; 90% RH)	Water Sorption (% w/dry w) Sorption ([1]; 90% RH)	Thermodynamic stability of the polymorph [2]
C[C@H](NC(=O)C(=O)Nc1ccccc1C(C)(C)C)C(=O)N[C@@H](CC(=O)O)C(=O)COc1c(F)c(F)cc(F)c1F [Form II, (3S)-3-[N—(N′-(2-tert-butylphenyl)oxamyl)alaninyl]amino-5-(2′,3′,5′,6′-tetrafluorophenoxy)-4-oxopentanoic acid]	0.009 % w/dry w	0.007 % w/dry w	0.015 % w/dry w	0.014 % w/dry w	0.021 % w/dry w	0.020 % w/dry w	0.031 % w/dry w	0.029 % w/dry w	0.044 % w/dry w	0.042 % w/dry w	0.057 % w/dry w	0.057 % w/dry w	most thermodynamically stable
C[C@H](NC(=O)C(=O)Nc1ccccc1C(C)(C)C)C(=O)N[C@@H](CC(=O)O)C(=O)COc1c(F)c(F)cc(F)c1F [Form I, (3S)-3-[N—(N′-(2-tert-butylphenyl)oxamyl)alaninyl]amino-5-(2′,3′,5′,6′-tetrafluorophenoxy)-4-oxopentanoic acid]	0.015 % w/dry w	0.018 % w/dry w	0.025 % w/dry w	0.028 % w/dry w	0.037 % w/dry w	0.049 % w/dry w	0.055 % w/dry w	0.072 % w/dry w	0.105 % w/dry w	0.110 % w/dry w	0.208 % w/dry w	0.208 % w/dry w	–
